A word on the ED50: it is the dose that gives a 50% effect, or the effect in half of the subjects. A lower ED50 goes with greater potency.

Where a name gives a salt, the structure may show the parent alone.

This is an account of results in US4452809A, “Trans-4-(2-chlorophenoxy)-1-ethyl-3-pyrrolidinol and anti-depressant use thereof” (A. H. Robins Company, Inc., priority 1983, dated 1984).

The subject of assay [1] is depressant effects induced by tetrabenazine. As to the kind of experiment: Antitetrabenazine test in mice (blocking of tetrabenazine-induced depressant effects). The class given is in vivo. The conditions noted are these: Mus musculus, ip, compound intraperitoneally, tetrabenazine intravenously. The text has this:
Compounds preferred for their antidepressant activity have the formula: [drawing 4] Illustrative of the antidepressant activity of compounds of Formula Ia are the effective dosages determined by the foregoing anti-tetrabenazine test.

The test system of another assay is cardiac arrhythmia. As to the kind of experiment: Counteracting of ouabain-induced cardiac arrhythmia in anesthetized dogs. Type of assay: in vivo, adult mongrel dogs. On the procedure:
The procedure is carried out under barbiturate anesthesia using adult mongrel dogs of either sex weighing from 8 to 14 kg. A Grass Model 7 polygraph was used for recording femoral arterial blood pressure (Statham P23AC Transducer) and the electrocardiogram (Grass 7P4 Preamplifier). Ouabian was given intravenously in an initial dose of 40γ/kg in a second dose of 20γ/kg, given 30 minutes after the first dose, and in subsequent doses of 10γ/kg which were repeated at 15 minute intervals as required for producing cardiac arrhythmias that persisted for at least 15 minutes. When the arrhythmias were established the test compounds were administered by infusion (Harvard Model 942 Infusion Pump) into a femoral vein at a rate of 1 mg/kg/min. Concentrations of compounds were adjusted according to the weight of the dog to allow a volume infusion of 1 ml/min. Compounds that are considered to be active as antiarrhythmic agents cause reversion to sinus rhythm which is maintained for at least 60 minutes.

Turning to `CCN1C[C@@H](O)[C@H](Oc2c(Cl)cccc2Cl)C1` (relative stereo) [Example 49, Trans-4-(2,6-dichlorophenoxy)-1-ethyl-3-pyrrolidinol Hydrochloride], the ED50 in assay [1] came out at 4.8 mg/kg.
In assay [1], `CCN1C[C@@H](O)[C@H](Oc2ccccc2)C1` (relative stereo) [Example 46, Trans-1-ethyl-4-phenoxy-3-pyrrolidinol Oxalate Hydrate (4:1)] showed an ED50 of 3.5 mg/kg.
As to `CCN1C[C@@H](O)[C@H](Oc2cccc3ccccc23)C1` (relative stereo) [Example 55, Trans-1-ethyl-4-(1-naphthalenyloxy)-3-pyrrolidinol Hydrochloride], in the assay on cardiac arrhythmia (Canis lupus familiaris, iv, 1 h, barbiturate anesthesia, ouabain arrhythmia, infusion into femoral vein 1 mg/kg/min, reversion to sinus rhythm maintained at least 60 minutes, read-out: antiarrhythmic activity, minimum effective dose), the minimal effective dose is 10.7 mg/kg. For the same compound, in the assay on cardiac arrhythmia (ouabain-induced arrhythmia), the “antiarrhythmic activity (in words)” value is “exceptional antharrhythmic activity”.
Take `CCN1C[C@@H](O)[C@H](Oc2ccccc2Cl)C1` (relative stereo) [Example 48, Trans-4-(2-chlorophenoxy)-1-ethyl-3-pyrrolidinol Hydrochloride]: the ED50 in assay [1] came out at 2.8 mg/kg.
On the same count and under the same terms, the figure for `CN1C[C@@H](O)[C@H](Oc2ccccc2)C1` (relative stereo) [Example 3, Trans-1-methyl-4-phenoxy-3-pyrrolidinol] is 3.7 mg/kg.
